Test results: publication PMC13327620, “A Deep‐Red‐Absorbing Osmium(II) Complex as a Photosensitizer for Photodynamic Therapy Inducing Immunogenic Cell Death” (Angewandte Chemie (International Ed. in English), 2026)

What was measured:
ATP release = assay: Detection of extracellular ATP in CT26 cells; type: cell-based, mouse; conditions: CT26, irradiated at 740 nm
Experimental: We finally measured ATP release, another important event in ICD, using a bioluminescence detection kit (Figure 3E).
Scientific, Catalog no.15 5411) at a d ensity of 8,00 0 cells p er well and cultu red fo r 24 h at 37 °C with 5 % CO2. T he cells wer e then treated with a solution of the compounds at a concentration corresponding to the IC50 for 4 h. After refreshing the medium, cells were subjected to irradiation and incubated for an additional 12 h. Subsequently, the cells were fix ed with 4% paraformaldehyde and immunostained with Anti- Calreticulin antibody (Abcam, Catalog no. ab2907) diluted 1/1000 at 4 °C overnight. Cells were then washed three times with PBS, treated with Goat Anti- Rabbit IgG H&L (Alexa […]
temperature in the dark, washed in PBS and treat ed with 10 µg/mL Hoechst for 15 min.
After a final wash, cells were analyzed by confocal microscopy as det ailed above. […]
incubated for 24 h. Cells were then treat ed with the determined IC50 of complexes and irradiated or kept in the dark. Supernatants were collected 12 h post-t reatm ent, and the extracellular ATP content was measured with Adenosine 5′ -triphosphate (ATP) Bioluminescent Assay Kit (Sigma-Aldrich) according tomanufacturer ’s ins truction. […]
556419) and PI (BD Biosciences, Catalog no.51- 66211E). CT26- luc cells were analyzed by flow cytometry (Beckm an Coulter Life Sciences, CytoFLEX LX Flow Cytometer). […]

CT26‐luc cells = assay: In vivo vaccination and rechallenge, CT26-luc model; design: species or system BALB/c mice
Experimental: The ability to stimulate ICD in vivo was evaluated using a CT26‐luc vaccination and rechallenge model, following the gold‐standard method (Figure 5A). The mice were randomly assigned to groups and injected subcutaneously on the left flank with PBS solution, CT26‐luc cells pre‐treated with either 600 µM Cisplatin in the dark, 6.5 µM Ce6, or 1.8 µM Os2 upon 740 nm LED light irradiation (60 min, 12.6 J cm^−2). After 7 days, all the mice were rechallenged by subcutaneous injection of untreated live CT26‐luc cells on the right flank. […] However, by day 15, tumors in the PBS‐treated (control) group grew rapidly, reaching an average tumor volume of 717 ± 190 mm^3.
(§1) The BALB/c female mice were randomly divided into 4 groups with each group containing 5 mice, which were named as Control group, Cisplatin group, Ce6 group and Os2 group. CT26-luc cells wer e treat ed in vitro with 600 µM Cisplatin in the dark, 6.5 µM Ce6 or 1.8 µM Os2 upon 740 nm LED light irradiation (60 min, 12.6 J cm-2) following the methods described above. Subsequently, treated CT26-luc cells (3×10^5 cells in 100 µ L sterile PBS) or 100 µ L sterile PB S were injected subcutaneously into the left flank of each mouse. One week later, mice were r echalleng ed by injection with untreated CT26- luc cells (1×10^6 cells in 100 µL sterile PBS). The mice were monitored by an in vivo imaging system (Biospace Lab, Photon Imager Optima) and the tumor volume was calculated with the following equation: tumor volume = width 2 × length × […]
(§2) In vivo vaccination study on MCA205 cells
The C57BL/6 mice were randomly divided into 5 groups with each group containing 10 mice, whi ch w ere nam ed as Control group, Cisplatin group, Oxaliplatin group, Ce6 group and Os2 group. M CA205 cells were treated in vitro with 500 µM Cisplatin o r 1400 µM Oxaliplatin in the dark, 5.5 µM Ce6 or 3 µM Os2 upon 740 nm LED light irradiation (60 min, 12.6 J cm-2) following the methods described above. […] The tumor volume was calculated with the following equation: tumor volume =

MCA205 cells = assay: In vivo vaccination and rechallenge, MCA205 model; design: species or system C57BL/6 mice; conditions: vaccination with MCA205 cells pre-treated with 500 µM Cisplatin or 1400 µM Oxaliplatin (dark), 5.5 µM Ce6 or 3 µM Os2 (740 nm)
Description: Next, we used these concentrations in the MCA205 vaccination and rechallenge model on C57BL/6 mice to test the in vivo ICD effect of Os2, following the same experimental procedure as that used for CT26‐luc cells in Figure 5A. […] Body weights remained stable across all groups throughout the study, further supporting the good in vivo biosafety of Os2.
as §1, §2
The C57BL/6 mice were randomly divided into 5 groups with each group containing 10 mice, whi ch w ere nam ed as Control group, Cisplatin group, Oxaliplatin group, Ce6 group and Os2 group. M CA205 cells were treated in vitro with 500 µM Cisplatin o r 1400 µM Oxaliplatin in the dark, 5.5 µM Ce6 or 3 µM Os2 upon 740 nm LED light irradiation (60 min, 12.6 J cm-2) following the methods described above. Subsequently, treated MCA205 cells (3 ×10^5 cells in 100 µ L sterile PBS) or 100 µ L sterile PBS were injected subcutaneously into the left flank of each mouse. One week later, mice were rechallenged by injection with untreated MCA205 cells (1×10^6 cells in 100 µ L sterile PBS). The tumor volume was calculated with the following equation: tumor volume =

Compound: C=Cc1c(C)c2cc3nc(c(CC(=O)O)c4[nH]c(cc5nc(cc1[nH]2)C(C)=C5CC)c(C)c4C(=O)O)[C@@H](CCC(=O)O)[C@@H]3C [Ce6, chlorin e6]
- ATP release (ATP release): significantly enhanced ATP release
- Mice with tumors completely ablated (CT26‐luc cells; by day 40, n = 5 per group): one mouse
- Tumor volume, times smaller than control group (CT26‐luc cells; day 15 after rechallenge, vaccination with CT26‐luc cells pre-treated with 6.5 µM Ce6 or 1.8 µM Os2 + 740 nm): 1.7
- Survival (CT26‐luc cells; up to 40 days after rechallenge, compared to the other groups): prolonged survival periods
- Tumor growth (MCA205 cells): partial suppression
